# Data: ChEMBL document CHEMBL4229379, “Synthesis and structure-activity relationship of novel bisindole amidines active against MDR Gram-positive and Gram-negative bacteria” (Eur J Med Chem, 2018)
# Assays:
# [1] = tested on: Staphylococcus epidermidis; experiment: Antibacterial activity against methicillin-sensitive Staphylococcus epidermidis ATCC 12228 after 18 hrs by CLSI broth microdilution method; format: functional; settings: ATCC 12228, 18 h
# [2] = tested on: Staphylococcus epidermidis; experiment: Antibacterial activity against methicillin-resistant Staphylococcus epidermidis 12-8 after 18 hrs by CLSI broth microdilution method; format: functional; settings: 12-8, 18 h
# Staphylococcus aureus [3] = experiment: Antibacterial activity against methicillin-sensitive Staphylococcus aureus ATCC 29213 after 18 hrs by CLSI broth microdilution method; format: functional; settings: ATCC 29213, 18 h
# Staphylococcus aureus [4] = experiment: Antibacterial activity against methicillin-resistant Staphylococcus aureus 12-33 after 18 hrs by CLSI broth microdilution method; format: functional; settings: 12-33, 18 h
# Enterococcus faecalis [5] = experiment: Antibacterial activity against vancomycin-sensitive Enterococcus faecalis ATCC 29212 after 18 hrs by CLSI broth microdilution method; format: functional; settings: ATCC 29212, 18 h
# Enterococcus faecalis [6] = experiment: Antibacterial activity against vancomycin-resistant Enterococcus faecalis 09-9 after 18 hrs by CLSI broth microdilution method; format: functional; settings: 09-9, 18 h
# Enterococcus faecium [7] = experiment: Antibacterial activity against vancomycin-resistant Enterococcus faecium ATCC 700221 after 18 hrs by CLSI broth microdilution method; format: functional; settings: ATCC 700221, 18 h
# Enterococcus faecium [8] = experiment: Antibacterial activity against vancomycin-sensitive Enterococcus faecium 12-3 after 18 hrs by CLSI broth microdilution method; format: functional; settings: 12-3, 18 h
# Escherichia coli [9] = experiment: Antibacterial activity against extended-spectrum beta-lactamase deficient Escherichia coli ATCC 25922 after 18 hrs by CLSI broth microdilution method; format: functional; settings: ATCC 25922, 18 h
# Escherichia coli [10] = experiment: Antibacterial activity against extended-spectrum beta-lactamase harboring Escherichia coli 12-15 after 18 hrs by CLSI broth microdilution method; format: functional; settings: 12-15, 18 h
# Klebsiella pneumoniae [11] = experiment: Antibacterial activity against extended-spectrum beta-lactamase harboring Klebsiella pneumoniae ATCC 700603 after 18 hrs by CLSI broth microdilution method; format: functional; settings: Klebsiella pneumoniae, 700603, 18 h
# Klebsiella pneumoniae [12] = experiment: Antibacterial activity against new delhi metallo-beta-lactamase-1 harboring Klebsiella pneumoniae ATCC BAA-2146 after 18 hrs by CLSI broth microdilution method; format: functional; settings: ATCC BAA-2146, 18 h
# Klebsiella pneumoniae [13] = experiment: Antibacterial activity against extended-spectrum beta-lactamase harboring Klebsiella pneumoniae 12-8 after 18 hrs by CLSI broth microdilution method; format: functional; settings: 12-8, 18 h
# Pseudomonas aeruginosa [14] = experiment: Antibacterial activity against Pseudomonas aeruginosa ATCC 27853 after 18 hrs by CLSI broth microdilution method; format: functional; settings: ATCC 27853, 18 h
# [15] = tested on: Acinetobacter calcoaceticus; experiment: Antibacterial activity against Acinetobacter calcoaceticus ATCC 19606 after 18 hrs by CLSI broth microdilution method; format: functional; settings: ATCC 19606, 18 h
# Enterobacter cloacae = experiment: Antibacterial activity against Enterobacter cloacae ATCC 43560 after 18 hrs by CLSI broth microdilution method; format: functional; settings: ATCC 43560, 18 h
# Proteus mirabilis = experiment: Antibacterial activity against Proteus mirabilis 12-6 after 18 hrs by CLSI broth microdilution method; format: functional; settings: 12-6, 18 h
# [16] = Cytotoxicity against HEK293T cells assessed as reduction in cell viability after 48 hrs by MTS assay; format: cell-based, HEK-293T; settings: human
# [17] = tested on: Staphylococcus epidermidis; experiment: Antibacterial activity against methicillin-sensitive Staphylococcus epidermidis 12-6 after 18 hrs by CLSI broth microdilution method; format: functional; settings: 12-6, 18 h
# Staphylococcus aureus [18] = experiment: Antibacterial activity against methicillin-resistant Staphylococcus aureus ATCC 33591 after 18 hrs by CLSI broth microdilution method; format: functional; settings: ATCC 33591, 18 h
# Staphylococcus aureus [19] = experiment: Antibacterial activity against methicillin-sensitive Staphylococcus aureus 15 after 18 hrs by CLSI broth microdilution method; format: functional; settings: Staphylococcus aureus, 15, 18 h
# Staphylococcus aureus [20] = experiment: Antibacterial activity against methicillin-sensitive Staphylococcus aureus 12-28 after 18 hrs by CLSI broth microdilution method; format: functional; settings: 12-28, 18 h
# Enterococcus faecalis [21] = experiment: Antibacterial activity against vancomycin-resistant Enterococcus faecalis ATCC 51299 after 18 hrs by CLSI broth microdilution method; format: functional; settings: ATCC 51299, 18 h
# Enterococcus faecalis [22] = experiment: Antibacterial activity against vancomycin-sensitive Enterococcus faecalis 12-5 after 18 hrs by CLSI broth microdilution method; format: functional; settings: 12-5, 18 h
# Enterococcus faecium [23] = experiment: Antibacterial activity against vancomycin-resistant Enterococcus faecium 12-1 after 18 hrs by CLSI broth microdilution method; format: functional; settings: 12-1, 18 h
# Escherichia coli [24] = experiment: Antibacterial activity against extended-spectrum beta-lactamase deficient Escherichia coli 1515 after 18 hrs by CLSI broth microdilution method; format: functional; settings: Escherichia coli, 1515, 18 h
# Escherichia coli [25] = experiment: Antibacterial activity against extended-spectrum beta-lactamase deficient Escherichia coli 12-14 after 18 hrs by CLSI broth microdilution method; format: functional; settings: 12-14, 18 h
# Klebsiella pneumoniae [26] = experiment: Antibacterial activity against extended-spectrum beta-lactamase deficient Klebsiella pneumoniae 7 after 18 hrs by CLSI broth microdilution method; format: functional; settings: Klebsiella pneumoniae, 7, 18 h
# Klebsiella pneumoniae [27] = experiment: Antibacterial activity against extended-spectrum beta-lactamase deficient Klebsiella pneumoniae 12-4 after 18 hrs by CLSI broth microdilution method; format: functional; settings: 12-4, 18 h
# Pseudomonas aeruginosa [28] = experiment: Antibacterial activity against Pseudomonas aeruginosa PAO1 after 18 hrs by CLSI broth microdilution method; format: functional; settings: PAO1, 18 h
# Pseudomonas aeruginosa [29] = experiment: Antibacterial activity against Pseudomonas aeruginosa 12-16 after 18 hrs by CLSI broth microdilution method; format: functional; settings: 12-16, 18 h
# Klebsiella aerogenes = experiment: Antibacterial activity against Enterobacter aerogenes ATCC 13048 after 18 hrs by CLSI broth microdilution method; format: functional; settings: ATCC 13048, 18 h
# Serratia marcescens = experiment: Antibacterial activity against Serratia marcescens ATCC 21074 after 18 hrs by CLSI broth microdilution method; format: functional; settings: ATCC 21074, 18 h
# Providencia rettgeri = experiment: Antibacterial activity against Providencia rettgeri ATCC 31052 after 18 hrs by CLSI broth microdilution method; format: functional; settings: ATCC 31052, 18 h
# Proteus vulgaris = experiment: Antibacterial activity against Proteus vulgaris ATCC 29905 after 18 hrs by CLSI broth microdilution method; format: functional; settings: ATCC 29905, 18 h
# [30] = tested on: Stenotrophomonas maltophilia; experiment: Antibacterial activity against Stenotrophomonas maltophilia ATCC 13636 after 18 hrs by CLSI broth microdilution method; format: functional; settings: ATCC 13636, 18 h
# Citrobacter freundii = experiment: Antibacterial activity against Citrobacter freundii ATCC 43864 after 18 hrs by CLSI broth microdilution method; format: functional; settings: ATCC 43864, 18 h
structure (smiles),measurement,setting,value
CNC(=N)c1ccc2cc(-c3ccc(-c4cc5ccc(C(=N)NC)cc5[nH]4)cc3)[nH]c2c1,MIC,[1],0.12 µg/mL
same,MIC,[2],0.25 µg/mL
same,MIC,Staphylococcus aureus [3],0.25 µg/mL
same,MIC,Staphylococcus aureus [4],0.25 µg/mL
same,MIC,Enterococcus faecalis [5],2 µg/mL
same,MIC,Enterococcus faecalis [6],1 µg/mL
same,MIC,Enterococcus faecium [7],0.5 µg/mL
same,MIC,Enterococcus faecium [8],2 µg/mL
same,MIC,Escherichia coli [9],4 µg/mL
same,MIC,Escherichia coli [10],8 µg/mL
same,MIC,Klebsiella pneumoniae [11],64 µg/mL
same,MIC,Klebsiella pneumoniae [12],64 µg/mL
same,MIC,Klebsiella pneumoniae [13],32 µg/mL
same,MIC,Pseudomonas aeruginosa [14],16 µg/mL
same,MIC,[15],128 µg/mL
same,MIC,Enterobacter cloacae,8 µg/mL
same,MIC,Proteus mirabilis,64 µg/mL
same,CC50 at 48 h,[16],28 µg/mL
same,MIC,[17],0.12 µg/mL
same,MIC,Staphylococcus aureus [18],0.25 µg/mL
same,MIC,Staphylococcus aureus [19],0.25 µg/mL
same,MIC,Staphylococcus aureus [20],0.25 µg/mL
same,MIC,Enterococcus faecalis [21],2 µg/mL
same,MIC,Enterococcus faecalis [22],2 µg/mL
same,MIC,Enterococcus faecium [23],0.5 µg/mL
same,MIC,Escherichia coli [24],16 µg/mL
same,MIC,Escherichia coli [25],8 µg/mL
same,MIC,Klebsiella pneumoniae [26],16 µg/mL
same,MIC,Klebsiella pneumoniae [27],32 µg/mL
same,MIC,Pseudomonas aeruginosa [28],64 µg/mL
same,MIC,Pseudomonas aeruginosa [29],64 µg/mL
same,MIC,Klebsiella aerogenes,16 µg/mL
same,MIC,Serratia marcescens,64 µg/mL
same,MIC,Providencia rettgeri,64 µg/mL
same,MIC,Proteus vulgaris,64 µg/mL
same,MIC,[30],16 µg/mL
same,MIC,Citrobacter freundii,16 µg/mL
